# According to ChEMBL document CHEMBL1201862, “PubChem BioAssay data set” (2004):
#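 Following 48 hours of exposure in 96-well plates, responses at five concentrations were used to interpolate endpoints linearly. GI50 is the concentration that inhibits growth by half.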 The source made the active and inactive calls. No stated cut-off is given here; in the data, active = GI50 up to about 1.1 µM and inactive = higher.
# Columns and labels:
# Experiment in all cases: inhibition of tumour cell growth, NCI panel, 48 h
# 786-0 = test system: 786-0
# A498 = test system: A498
# A549 = test system: A549
# ACHN = test system: ACHN
# BT-549 = test system: BT-549
# CAKI-1 = test system: CAKI-1
# CCRF-CEM = test system: CCRF-CEM
# COLO 205 = test system: COLO 205
# DU-145 = test system: DU-145
# EKVX = test system: EKVX
# HCC 2998 = test system: HCC 2998
# HCT-116 = test system: HCT-116
# HCT-15 = test system: HCT-15
# HL-60 = test system: HL-60
# HOP-62 = test system: HOP-62
# HOP-92 = test system: HOP-92
# HT-29 = test system: HT-29
# Hs-578T = test system: Hs-578T
# IGROV-1 = test system: IGROV-1
# K562 = test system: K562
# KM12 = test system: KM12
# LOX IMVI = test system: LOX IMVI
# M14 = test system: M14
# MCF7 = test system: MCF7
# MDA-MB-231 = test system: MDA-MB-231
# MDA-MB-435 = test system: MDA-MB-435
# MDA-N = test system: MDA-N
# MOLT-4 = test system: MOLT-4
# NCI-H226 = test system: NCI-H226
# NCI-H23 = test system: NCI-H23
# NCI-H460 = test system: NCI-H460
# NCI-H522 = test system: NCI-H522
# NCI/ADR-RES = test system: NCI/ADR-RES
# OVCAR-3 = test system: OVCAR-3
# OVCAR-4 = test system: OVCAR-4
# OVCAR-5 = test system: OVCAR-5
# OVCAR-8 = test system: OVCAR-8
# PC-3 = test system: PC-3
# RPMI-8226 = test system: RPMI-8226
# RXF 393 = test system: RXF 393
# SF-268 = test system: SF-268
# SF-295 = test system: SF-295
# SF-539 = test system: SF-539
# SK-MEL-28 = test system: SK-MEL-28
# SK-MEL-2 = test system: SK-MEL-2
# SK-MEL-5 = test system: SK-MEL-5
# SK-OV-3 = test system: SK-OV-3
# SN12C = test system: SN12C
# SNB-19 = test system: SNB-19
# SNB-75 = test system: SNB-75
# SR = test system: SR
# SW-620 = test system: SW-620
# T47D = test system: T47D
# TK-10 = test system: TK-10
# U-251 = test system: U-251
# UACC-257 = test system: UACC-257
# UACC-62 = test system: UACC-62
# UO-31 = test system: UO-31
# Malme-3M = test system: Malme-3M
smiles,measurement,setting,value
N#Cc1ccc(-n2c3ccccc3c3ccc4c(c32)C(=O)C=CC4=O)cc1,GI50,786-0,1.56 µM (inactive)
same,GI50,A498,1.85 µM (inactive)
same,GI50,A549,16.9 µM (inactive)
same,GI50,ACHN,1.56 µM (inactive)
same,GI50,BT-549,12.2 µM (inactive)
same,GI50,CAKI-1,1.38 µM (inactive)
same,GI50,CCRF-CEM,0.409 µM (active)
same,GI50,COLO 205,2.79 µM (inactive)
same,GI50,DU-145,3.6 µM (inactive)
same,GI50,EKVX,1.91 µM (inactive)
same,GI50,HCC 2998,8.43 µM (inactive)
same,GI50,HCT-116,2.42 µM (inactive)
same,GI50,HCT-15,4.49 µM
same,GI50,HL-60,0.578 µM (active)
same,GI50,HOP-62,15.3 µM (inactive)
same,GI50,HOP-92,1.52 µM (inactive)
same,GI50,HT-29,1.66 µM (inactive)
same,GI50,Hs-578T,4.16 µM (inactive)
same,GI50,IGROV-1,5.25 µM (inactive)
same,GI50,K562,1.29 µM (inactive)
same,GI50,KM12,10.2 µM (inactive)
same,GI50,LOX IMVI,2.99 µM (inactive)
same,GI50,M14,2.68 µM (inactive)
same,GI50,MCF7,2.52 µM (inactive)
same,GI50,MDA-MB-231,2.51 µM (inactive)
same,GI50,MDA-MB-435,2.01 µM (inactive)
same,GI50,MDA-N,4.99 µM (inactive)
same,GI50,MOLT-4,0.348 µM (active)
same,GI50,NCI-H226,24.3 µM (inactive)
same,GI50,NCI-H23,6.89 µM (inactive)
same,GI50,NCI-H460,21.6 µM (inactive)
same,GI50,NCI-H522,0.11 µM (active)
same,GI50,NCI/ADR-RES,10.9 µM (inactive)
same,GI50,OVCAR-3,3.27 µM (inactive)
same,GI50,OVCAR-4,3.78 µM (inactive)
same,GI50,OVCAR-5,17.8 µM (inactive)
same,GI50,OVCAR-8,3.66 µM (inactive)
same,GI50,PC-3,3.06 µM (inactive)
same,GI50,RPMI-8226,3.72 µM (inactive)
same,GI50,RXF 393,2.39 µM (inactive)
same,GI50,SF-268,2.62 µM (inactive)
same,GI50,SF-295,14 µM (inactive)
same,GI50,SF-539,3.94 µM (inactive)
same,GI50,SK-MEL-28,2.88 µM (inactive)
same,GI50,SK-MEL-2,8.87 µM (inactive)
same,GI50,SK-MEL-5,5.02 µM (inactive)
same,GI50,SK-OV-3,13.8 µM (inactive)
same,GI50,SN12C,3.65 µM (inactive)
same,GI50,SNB-19,10.1 µM (inactive)
same,GI50,SNB-75,18.2 µM (inactive)
same,GI50,SR,1.46 µM (inactive)
same,GI50,SW-620,1.92 µM (inactive)
same,GI50,T47D,2.74 µM (inactive)
same,GI50,TK-10,3.4 µM (inactive)
same,GI50,U-251,4.56 µM (inactive)
same,GI50,UACC-257,4.67 µM (inactive)
same,GI50,UACC-62,6.25 µM (inactive)
same,GI50,UO-31,1.45 µM (inactive)
CCC(C#N)N(Cc1cccc(CN(C(C)=O)C(C#N)CC)c1)C(C)=O (stereo not given),GI50,786-0,> 100 µM (inactive)
same,GI50,A498,> 100 µM (inactive)
same,GI50,A549,> 100 µM (inactive)
same,GI50,ACHN,> 100 µM (inactive)
same,GI50,BT-549,> 100 µM (inactive)
same,GI50,CAKI-1,> 100 µM (inactive)
same,GI50,CCRF-CEM,> 100 µM (inactive)
same,GI50,COLO 205,> 100 µM (inactive)
same,GI50,DU-145,> 100 µM (inactive)
same,GI50,EKVX,> 100 µM (inactive)
same,GI50,HCC 2998,97.1 µM (inactive)
same,GI50,HCT-116,> 100 µM (inactive)
same,GI50,HCT-15,42.9 µM
same,GI50,HL-60,> 100 µM (inactive)
same,GI50,HOP-62,> 100 µM (inactive)
same,GI50,HOP-92,6.56 µM (inactive)
same,GI50,HT-29,7.57 µM (inactive)
same,GI50,Hs-578T,> 100 µM (inactive)
same,GI50,IGROV-1,> 100 µM (inactive)
same,GI50,K562,> 100 µM (inactive)
same,GI50,KM12,> 100 µM (inactive)
same,GI50,LOX IMVI,> 100 µM (inactive)
same,GI50,M14,> 100 µM (inactive)
same,GI50,MCF7,> 100 µM (inactive)
same,GI50,MDA-MB-231,46.6 µM (inactive)
same,GI50,MDA-MB-435,> 100 µM (inactive)
same,GI50,MDA-N,> 100 µM (inactive)
same,GI50,MOLT-4,5.52 µM (inactive)
same,GI50,Malme-3M,> 100 µM (inactive)
same,GI50,NCI-H226,44.5 µM (inactive)
same,GI50,NCI-H23,> 100 µM (inactive)
same,GI50,NCI-H522,> 100 µM (inactive)
same,GI50,NCI/ADR-RES,84.1 µM (inactive)
same,GI50,OVCAR-3,> 100 µM (inactive)
same,GI50,OVCAR-4,31.4 µM (inactive)
same,GI50,OVCAR-5,> 100 µM (inactive)
same,GI50,OVCAR-8,> 100 µM (inactive)
same,GI50,PC-3,> 100 µM (inactive)
same,GI50,RPMI-8226,> 100 µM (inactive)
same,GI50,RXF 393,> 100 µM (inactive)
same,GI50,SF-268,> 100 µM (inactive)
same,GI50,SF-295,> 100 µM (inactive)
same,GI50,SF-539,> 100 µM (inactive)
same,GI50,SK-MEL-2,> 100 µM (inactive)
same,GI50,SK-MEL-5,> 100 µM (inactive)
same,GI50,SK-OV-3,> 100 µM (inactive)
same,GI50,SN12C,> 100 µM (inactive)
same,GI50,SNB-19,> 100 µM (inactive)
same,GI50,SNB-75,12 µM (inactive)
same,GI50,SR,77.8 µM (inactive)
same,GI50,SW-620,> 100 µM (inactive)
same,GI50,T47D,7.24 µM (inactive)
same,GI50,TK-10,> 100 µM (inactive)
same,GI50,U-251,> 100 µM (inactive)
same,GI50,UACC-257,> 100 µM (inactive)
same,GI50,UACC-62,> 100 µM (inactive)
same,GI50,UO-31,> 100 µM (inactive)
